Several values for one entry are separate records, joined by “and”; a condition that tells them apart may be missing. Identical values can stand only once.
Tests used:
Test in all cases: normalised viability (% of control), CellTiter-Blue; higher = more viable cells (about 100 = DMSO control)
Details in all cases: incubation time: 72 h
CAL-148 [1] = test system: CAL-148
Outline: (§1)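 Plates were quality-checked by Z'-factor and normalised to vehicle (100) and a positive kill control (0). The underlying assay incubated breast cancer cell lines for 72 h on 384-well plates with compound, then added 2.5 µl CellTiter-Blue for 2 h at 37 °C and read at 560/590 nm. The value is normalised viability at a single listed concentration of the series.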

HCC1599 [2] = test system: HCC1599
Outline: as §1

HCC1143 [3] = test system: HCC1143
Outline: as §1

MFM-223 [4] = test system: MFM-223
Outline: as §1

MDA-MB-468 [5] = test system: MDA-MB-468
Outline: as §1

MDA-MB-453 [6] = test system: MDA-MB-453
Outline: as §1

CAL-51 [7] = test system: CAL-51
Outline: as §1

DU-4475 [8] = test system: DU-4475
Outline: as §1

SK-BR-3 [9] = test system: SK-BR-3
Outline: as §1

HCC1937 [10] = test system: HCC1937
Outline: as §1

BT-474 [11] = test system: BT-474
Outline: as §1

MDA-MB-231 [12] = test system: MDA-MB-231
Outline: as §1

BT-549 = test system: BT-549
Protocol: (§2)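 DSRT, CellTiter-Blue viability, 72 h incubation. Signal is normalised to DMSO and benzethonium chloride controls. Value is the normalised response at dose 3.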

MDA-MB-436 = test system: MDA-MB-436
Protocol: as §2

Hs578T = test system: Hs578T
Protocol: as §2

CAL-148 [13] = test system: CAL-148; remark: listed apart in the source
Protocol: as §2

HCC1599 [14] = test system: HCC1599; remark: listed apart in the source
Protocol: as §2

HCC1143 [15] = test system: HCC1143; remark: listed apart in the source
Protocol: as §2

MFM-223 [16] = test system: MFM-223; remark: listed apart in the source
Protocol: as §2

MDA-MB-468 [17] = test system: MDA-MB-468; remark: listed apart in the source
Protocol: as §2

MDA-MB-453 [18] = test system: MDA-MB-453; remark: listed apart in the source
Protocol: as §2

CAL-85-1 = test system: CAL-85-1
Protocol: as §2

CAL-51 [19] = test system: CAL-51; remark: listed apart in the source
Protocol: as §2

CAL-120 = test system: CAL-120
Protocol: as §2

DU-4475 [20] = test system: DU-4475; remark: listed apart in the source
Protocol: as §2

SK-BR-3 [21] = test system: SK-BR-3; remark: listed apart in the source
Protocol: as §2

HDQ-P1 = test system: HDQ-P1
Protocol: as §2

HCC1937 [22] = test system: HCC1937; remark: listed apart in the source
Protocol: as §2

BT-474 [23] = test system: BT-474; remark: listed apart in the source
Protocol: as §2

MDA-MB-231 [24] = test system: MDA-MB-231; remark: listed apart in the source
Protocol: as §2

O=C(CCCCCCC(=O)Nc1ccccc1)NO [Vorinostat]
normalised viability (CAL-148 [1]; 3 nM): 78% and 95.3%
normalised viability (CAL-148 [1]; 30 nM): 90.2% and 100%
normalised viability (HCC1599 [2]; 10 nM): 110% and 97.9%
normalised viability (HCC1599 [2]; 1000 nM): 85.5% and 99.2%
normalised viability (HCC1599 [2]; 10000 nM): 20.5%
normalised viability (HCC1143 [3]; 10 nM): 86.1% and 105%
normalised viability (HCC1143 [3]; 1000 nM): 86.9% and 84.5%
normalised viability (HCC1143 [3]; 10000 nM): 21.4% and 24.2%
normalised viability (MFM-223 [4]; 10 nM): 97.4% and 103%
normalised viability (MFM-223 [4]; 1000 nM): 84% and 74%
normalised viability (MFM-223 [4]; 10000 nM): 19.7% and 18.4%
normalised viability (MDA-MB-468 [5]; 10 nM): 105%
normalised viability (MDA-MB-468 [5]; 1000 nM): 80.6% and 76%
normalised viability (MDA-MB-468 [5]; 10000 nM): 32.5% and 40.6%
normalised viability (MDA-MB-453 [6]; 3 nM): 107% and 96.8%
normalised viability (CAL-51 [7]; 3 nM): 113% and 102%
normalised viability (CAL-51 [7]; 30 nM): 102%
normalised viability (CAL-51 [7]; 100 nM): 106% and 97.5%
normalised viability (DU-4475 [8]; 3 nM): 108% and 97.7%
normalised viability (DU-4475 [8]; 30 nM): 104% and 99.7%
normalised viability (DU-4475 [8]; 100 nM): 99.1% and 94.5%
normalised viability (SK-BR-3 [9]; 10 nM): 104% and 95.2%
normalised viability (SK-BR-3 [9]; 1000 nM): 54.3% and 45.8%
normalised viability (SK-BR-3 [9]; 10000 nM): 3.79% and 4.28%
normalised viability (HCC1937 [10]; 10 nM): 73% and 92.4%
normalised viability (HCC1937 [10]; 1000 nM): 77.7% and 63.4%
normalised viability (HCC1937 [10]; 10000 nM): 24.6% and 22.7%
normalised viability (BT-474 [11]; 10 nM): 98.6% and 105%
normalised viability (BT-474 [11]; 1000 nM): 92.6% and 78.7%
normalised viability (BT-474 [11]; 10000 nM): 3.63% and 2.44%
normalised viability (MDA-MB-231 [12]; 10 nM): 99.4% and 89.5%
normalised viability (MDA-MB-231 [12]; 1000 nM): 88.3% and 84.1%
normalised viability (MDA-MB-231 [12]; 10000 nM): 13.9% and 12.9%
normalised viability (BT-549; 100 nM): 106% and 90%
normalised viability (MDA-MB-436; 100 nM): 107% and 95.4%
normalised viability (Hs578T; 100 nM): 74.4% and 83.6%
normalised viability (CAL-148 [13]; 10 nM): 88.3% and 92.3%
normalised viability (HCC1599 [14]; 100 nM): 101% and 111%
normalised viability (HCC1143 [15]; 100 nM): 94.1% and 114%
normalised viability (MFM-223 [16]; 100 nM): 103% and 97.1%
normalised viability (MDA-MB-468 [17]; 100 nM): 104% and 97.3%
normalised viability (MDA-MB-453 [18]; 10 nM): 115% and 97.7%
normalised viability (CAL-85-1; 10 nM): 109% and 96.3%
normalised viability (CAL-51 [19]; 10 nM): 107% and 93.5%
normalised viability (CAL-120; 100 nM): 79.2% and 93.3%
normalised viability (DU-4475 [20]; 10 nM): 109%
normalised viability (SK-BR-3 [21]; 100 nM): 59.4% and 81.4%
normalised viability (HDQ-P1; 10 nM): 113% and 89.2%
normalised viability (HCC1937 [22]; 100 nM): 98.6% and 84.2%
normalised viability (BT-474 [23]; 100 nM): 87.5% and 93.6%
normalised viability (MDA-MB-231 [24]; 100 nM): 97.9% and 86.1%

CC(=O)[C@]1(O)Cc2c(O)c3c(c(O)c2[C@@H](O[C@H]2C[C@H](N)[C@H](O)[C@H](C)O2)C1)C(=O)c1ccccc1C3=O [Idarubicin]
normalised viability (CAL-148 [1]; 0.3 nM): 91.7%
normalised viability (CAL-148 [1]; 3 nM): 93.2%
normalised viability (CAL-148 [1]; 10 nM): 63.2%
normalised viability (HCC1599 [2]; 1 nM): 111%
normalised viability (HCC1599 [2]; 100 nM): 102%
normalised viability (HCC1599 [2]; 1000 nM): 49.2%
normalised viability (HCC1143 [3]; 1 nM): 96%
normalised viability (HCC1143 [3]; 100 nM): 61%
normalised viability (HCC1143 [3]; 1000 nM): 30.1%
normalised viability (MFM-223 [4]; 1 nM): 107%
normalised viability (MFM-223 [4]; 100 nM): 92.5%
normalised viability (MFM-223 [4]; 1000 nM): 11.5%
normalised viability (MDA-MB-468 [5]; 1 nM): 100%
normalised viability (MDA-MB-468 [5]; 100 nM): 41.2%
normalised viability (MDA-MB-468 [5]; 1000 nM): 4.98%
normalised viability (MDA-MB-453 [6]; 0.3 nM): 108%
normalised viability (MDA-MB-453 [6]; 3 nM): 98.4%
normalised viability (MDA-MB-453 [6]; 10 nM): 100%
normalised viability (CAL-51 [7]; 0.3 nM): 106%
normalised viability (CAL-51 [7]; 3 nM): 98%
normalised viability (CAL-51 [7]; 10 nM): 44.2%
normalised viability (DU-4475 [8]; 0.3 nM): 89.8%
normalised viability (DU-4475 [8]; 3 nM): 90.2%
normalised viability (DU-4475 [8]; 10 nM): 55.7%
normalised viability (SK-BR-3 [9]; 1 nM): 107%
normalised viability (SK-BR-3 [9]; 100 nM): 26.4%
normalised viability (SK-BR-3 [9]; 1000 nM): 4.23%
normalised viability (HCC1937 [10]; 1 nM): 90.3%
normalised viability (HCC1937 [10]; 100 nM): 22.1%
normalised viability (HCC1937 [10]; 1000 nM): 21.3%
normalised viability (BT-474 [11]; 1 nM): 97.3%
normalised viability (BT-474 [11]; 100 nM): 61.8%
normalised viability (BT-474 [11]; 1000 nM): 7.38%
normalised viability (MDA-MB-231 [12]; 1 nM): 101%
normalised viability (MDA-MB-231 [12]; 100 nM): 41.5%
normalised viability (MDA-MB-231 [12]; 1000 nM): 8.68%
normalised viability (BT-549; 10 nM): 82.6%
normalised viability (MDA-MB-436; 10 nM): 106%
normalised viability (Hs578T; 10 nM): 72.8%
normalised viability (CAL-148 [13]; 1 nM): 93.9%
normalised viability (HCC1599 [14]; 10 nM): 97.2%
normalised viability (HCC1143 [15]; 10 nM): 103%
normalised viability (MFM-223 [16]; 10 nM): 103%
normalised viability (MDA-MB-468 [17]; 10 nM): 73.3%
normalised viability (MDA-MB-453 [18]; 1 nM): 98%
normalised viability (CAL-85-1; 1 nM): 92.3%
normalised viability (CAL-51 [19]; 1 nM): 105%
normalised viability (CAL-120; 10 nM): 70.1%
normalised viability (DU-4475 [20]; 1 nM): 98%
normalised viability (SK-BR-3 [21]; 10 nM): 67%
normalised viability (HDQ-P1; 1 nM): 113%
normalised viability (HCC1937 [22]; 10 nM): 47.2%
normalised viability (BT-474 [23]; 10 nM): 113%
normalised viability (MDA-MB-231 [24]; 10 nM): 102%
